The results in this text go back to ChEMBL document CHEMBL5154911, “Palmatine Derivatives as Potential Antiplatelet Aggregation Agents via Protein Kinase G/Vasodilator-Stimulated Phosphoprotein and Phosphatidylinositol 3-Kinase/Akt Phosphorylation” (J Med Chem, 2022).

Active and inactive are the calls of the source. The rule behind the calls is not given here. A value given as a limit tells only on which side of the number the result lay.

The first data set relates to Platelet. In words: Antiplatelet activity against ADP-induced C57BL/6J mouse platelet aggregation assessed as reduction in integrin alphaIIbbeta3 surface levels by measuring increase median fluorescence intensities at 10 uM incubated for 10 min by flow cytometry analysis. The data set is classed as functional, cell-based.
Conditions: not given
As for `COc1cc2c(cc1OC)-c1cc3ccc(OC)c(OCc4ccccc4C#N)c3c[n+]1CC2.[Br-]`, the outcome was Active. Still for that read-out and setting: in the case of `COc1cc2c(cc1OC)-c1cc3ccc(OC)c(OCC4CC4)c3c[n+]1CC2.[Br-]` it was “Active”; in that of `COc1cc2c(cc1OC)-c1cc3ccc(OC)c(NCc4ccc(Cl)cc4)c3c[n+]1CC2.[Cl-]`, “Active”.

System in a further data set: not listed separately
The data set can be described thus: Cytotoxicity against human HUVEC cells assessed as cell vaibility at 100 uM by MTS assay. The data set is classed as toxicity, cell-based. The following applies: read-out: Activity. For orientation: Tetrazolium assays rely on reduction of a dye to a coloured formazan, in cell work by metabolically active cells.
In the case of `COc1cccc(COc2c(OC)ccc3cc4[n+](cc23)CCc2cc(OC)c(OC)cc2-4)c1.[Br-]`, the viability at 100 µM was found to be 90%. For the compound `COc1cc2c(cc1OC)-c1cc3ccc(OC)c(OCc4ccccc4C#N)c3c[n+]1CC2.[Br-]`, the viability at 100 µM is below 60%. The same measure, in the same setting: the figure for `COc1cc2c(cc1OC)-c1cc3ccc(OC)c(OCC4CC4)c3c[n+]1CC2.[Br-]` is 90%.

Another data set deals with Platelet. In words: Antiplatelet activity against ADP-induced C57BL/6J mouse platelet aggregation assessed as reduction in P-selectin surface levels by measuring increase median fluorescence intensities at 10 uM incubated for 10 min by flow cytometry analysis. In kind it is functional, cell-based.
Conditions: not given
Consider `COc1cc2c(cc1OC)-c1cc3ccc(OC)c(OCc4ccccc4C#N)c3c[n+]1CC2.[Br-]`, for which the result was Active. Same read-out and setting: in the case of `COc1cc2c(cc1OC)-c1cc3ccc(OC)c(OCC4CC4)c3c[n+]1CC2.[Br-]` it was “Active”.

For `COc1cc2c(cc1OC)-c1cc3ccc(OC)c(NCc4ccc(Cl)cc4)c3c[n+]1CC2.[Cl-]`, the outcome was Active.

The test system of the next data set is Platelet. The data set can be described thus: Antiplatelet activity against ADP-induced C57BL/6J mouse platelet aggregation assessed as reduction on platelet aggregation at 2.5 to 10 uM preincubated for 10 mins followed by ADP addition. In kind it is functional, cell-based. Conditions: dose 2.5-10 µM, DDE = dose-dependent effect.
For `COc1cc2c(cc1OC)-c1cc3ccc(OC)c(OCc4ccccc4C#N)c3c[n+]1CC2.[Br-]`, the Activity entry was “Dde”. On the same count and under the same terms, in the case of `COc1cc2c(cc1OC)-c1cc3ccc(OC)c(OCC4CC4)c3c[n+]1CC2.[Br-]` it was “Dde”.

Take `COc1cc2c(cc1OC)-c1cc3ccc(OC)c(NCc4ccc(Cl)cc4)c3c[n+]1CC2.[Cl-]`: the Activity result was “Dde”.

System in another data set: not listed separately
In words: Antiplatelet activity against ADP-induced C57BL/6J mouse platelet aggregation assessed as maximal aggregration rate at 10 uM preincubated for 10 mins followed by ADP addition relative to control. The data set is classed as functional.
Conditions: not given
`COc1cc2c(cc1OC)-c1cc3ccc(OC)c(OS(=O)(=O)c4ccccc4)c3c[n+]1CC2.O=[S-](=O)c1ccccc1`: the “%max” value was determined as 39.4%.

Regarding `C=CCOc1c(OC)ccc2cc3[n+](cc12)CCc1cc(OC)c(OC)cc1-3.[Br-]`, the “%max” value was 34.3%. Regarding `COc1cc2c(cc1OC)-c1cc3ccc(OC)c(OCc4cccc(F)c4)c3c[n+]1CC2.[Br-]`, the “%max” value is reported as 35.7%. For the compound `CCCC(=O)Oc1c(OC)ccc2cc3[n+](cc12)CCc1cc(OC)c(OC)cc1-3.[Cl-]`, the “%max” value turned out to be 39.8%. `COc1cc2c(cc1OC)-c1cc3ccc(OC)c(OC(=O)c4ccccc4)c3c[n+]1CC2.[Cl-]`: the “%max” value amounted to 42.6%. `COc1cc2c(cc1OC)-c1c(C3C=CCCC3)c3ccc(OC)c(OC)c3c[n+]1CC2.[Br-]` (stereo not given): the “%max” value came to 39.8%. On the same count and under the same terms, the figure for `Br.COc1cc2c(cc1OC)-c1cc3ccc(OC)c(OCc4ccccc4[N+](=O)[O-])c3c[n+]1CC2` is 39.7%; for `COc1cc2c(cc1OC)-c1cc3ccc(OC)c(OCc4cccc(C#N)c4)c3c[n+]1CC2.[Br-]` it is 35.5%; for `Br.COc1cc2c(cc1OC)-c1cc3ccc(OC)c(OCc4ccc([N+](=O)[O-])cc4)c3c[n+]1CC2` it is 37.9%.

For the compound `COc1cc2c(cc1OC)-c1cc3ccc(OC)c(OCC4CCCCC4)c3c[n+]1CC2.[Br-]`, the “%max” value is on record as 33.9%.

For `COc1cccc(COc2c(OC)ccc3cc4[n+](cc23)CCc2cc(OC)c(OC)cc2-4)c1.[Br-]`, the “%max” value came out at 34.8%. Turning to `CCCCNc1c(OC)ccc2cc3[n+](cc12)CCc1cc(OC)c(OC)cc1-3.[Cl-]`, the “%max” value is on record as 33.4%. Consider `C/C=C/Cc1c2[n+](cc3c(OC)c(OC)ccc13)CCc1cc(OC)c(OC)cc1-2.[Br-]`, for which the “%max” value is listed as 40.3%. On the same count and under the same terms, the figure for `COc1cc2c(cc1OC)-c1cc3ccc(OC)c(NC(=O)C45CC6CC(CC(C6)C4)C5)c3c[n+]1CC2.[Cl-]` is 34.7%; for `COc1cc2c(cc1OC)-c1cc3ccc(OC)c(OC(=O)c4ccccc4C)c3c[n+]1CC2.[Cl-]` it is 38%. The same measure, in the same setting: the figure for `COc1cc2c(cc1OC)-c1c(Cc3ccc(C)cc3)c3ccc(OC)c(OC)c3c[n+]1CC2.[Br-]` is 38.3%; for `COc1cc2c(cc1OC)-c1cc3ccc(OC)c(OCC4CCCC4)c3c[n+]1CC2.[Br-]` it is 35.4%; for `COc1cc2c(cc1OC)-c1cc3ccc(OC)c(OCCC4CCCCC4)c3c[n+]1CC2.[Br-]` it is 36.5%. On the same count and under the same terms, the figure for `COc1cc2c(cc1OC)-c1cc3ccc(OC)c(OCc4ccccc4C)c3c[n+]1CC2.[Br-]` is 37.8%; for `COc1cc2c(cc1OC)-c1cc3ccc(OC)c(NCc4cccc(C#N)c4)c3c[n+]1CC2.[Cl-]` it is 36.3%. Consider `COc1cc2c(cc1OC)-c1cc3ccc(OC)c(NC(=O)c4ccc(F)cc4)c3c[n+]1CC2.[Cl-]`, for which the “%max” value was 37.1%. As for `COc1cc2c(cc1OC)-c1c(Cc3cc(C)cc(C)c3)c3ccc(OC)c(OC)c3c[n+]1CC2.[Br-]`, the “%max” value is 39.4%. With `CCC(=O)Oc1c(OC)ccc2cc3[n+](cc12)CCc1cc(OC)c(OC)cc1-3.[Cl-]`, the “%max” value is 40.1%. The same measure, in the same setting: the figure for `COC(=O)/C=C/c1ccc(Cc2c3[n+](cc4c(OC)c(OC)ccc24)CCc2cc(OC)c(OC)cc2-3)cc1.[Br-]` is 38.2%. Consider `COc1cc2c(cc1OC)-c1cc3ccc(OC)c(OCC(C)C)c3c[n+]1CC2.[Br-]`, for which the “%max” value was 33.4%. For `Br.COc1cc2c(cc1OC)-c1c(Cc3ccc([N+](=O)[O-])cc3)c3ccc(OC)c(OC)c3c[n+]1CC2`, the “%max” value was 38.6%. Consider `COc1cc2c(cc1OC)-c1cc3ccc(OC)c(OCc4ccc(C#N)cc4)c3c[n+]1CC2.[Br-]`, for which the “%max” value came to 42.1%.

For `CCCC(=O)Nc1c(OC)ccc2cc3[n+](cc12)CCc1cc(OC)c(OC)cc1-3.[Cl-]`, the “%max” value is reported as 34.3%. The same measure, in the same setting: in the case of `COc1cc2c(cc1OC)-c1cc3ccc(OC)c(OCc4ccccc4C#N)c3c[n+]1CC2.[Br-]` it was 30.5%; in that of `COc1cc2c(cc1OC)-c1cc3ccc(OC)c(NC(=O)c4cccc(F)c4)c3c[n+]1CC2.[Cl-]`, 40.6%; in that of `COc1cc2c(cc1OC)-c1cc3ccc(OC)c(NC(=O)C4CCCCC4)c3c[n+]1CC2.[Cl-]`, 37.7%. Same read-out and setting: in the case of `COc1ccc(C(=O)Nc2c(OC)ccc3cc4[n+](cc23)CCc2cc(OC)c(OC)cc2-4)cc1.[Cl-]` it was 38.5%; in that of `CCCCCCCOc1c(OC)ccc2cc3[n+](cc12)CCc1cc(OC)c(OC)cc1-3.[Br-]`, 35.3%; in that of `COc1cc2c(cc1OC)-c1cc3ccc(OC)c(NCc4ccc(F)cc4)c3c[n+]1CC2.[Cl-]`, 34.2%. For the compound `COc1cc2c(cc1OC)-c1c(Cc3ccccc3C#N)c3ccc(OC)c(OC)c3c[n+]1CC2.[Br-]`, the “%max” value is on record as 40.2%. The same measure, in the same setting: the figure for `COc1cc2c(cc1OC)-c1cc3ccc(OC)c(NC(=O)c4ccccc4)c3c[n+]1CC2.[Cl-]` is 35.8%.

For `COc1cc2c(cc1OC)-c1cc3ccc(OC)c(NC(=O)C4CCCC4)c3c[n+]1CC2.[Cl-]`, the “%max” value came out at 34.9%.

Take `COc1cc2c(cc1OC)-c1cc3ccc(OC)c(OC)c3c[n+]1CC2` [PALMITINE]: the “%max” value came to 38.4%. On the same count and under the same terms, in the case of `CCOc1c(OC)ccc2cc3[n+](cc12)CCc1cc(OC)c(OC)cc1-3.[Br-]` it was 34.6%; in that of `CCC(=O)Nc1c(OC)ccc2cc3[n+](cc12)CCc1cc(OC)c(OC)cc1-3.[Cl-]`, 34.5%. As to `CCCCCNc1c(OC)ccc2cc3[n+](cc12)CCc1cc(OC)c(OC)cc1-3.[Cl-]`, the “%max” value turned out to be 37.8%. In the case of `COc1cc2c(cc1OC)-c1cc3ccc(OC)c(OS(=O)(=O)c4ccc([N+](=O)[O-])cc4)c3c[n+]1CC2.O=[SH](=O)c1ccccc1`, the “%max” value is recorded as 37.7%. Same read-out and setting: in the case of `COc1cc2c(cc1OC)-c1cc3ccc(OC)c(OCc4ccc(C(C)C)cc4)c3c[n+]1CC2.[Br-]` it was 37.5%.

For the compound `CCCCOc1c(OC)ccc2cc3[n+](cc12)CCc1cc(OC)c(OC)cc1-3.[Br-]`, the “%max” value came out at 34.4%. In the case of `COc1ccc(CNc2c(OC)ccc3cc4[n+](cc23)CCc2cc(OC)c(OC)cc2-4)c(OC)c1.[Cl-]`, the “%max” value worked out at 33.5%. As to `COc1ccc(CNc2c(OC)ccc3cc4[n+](cc23)CCc2cc(OC)c(OC)cc2-4)cc1.[Cl-]`, the “%max” value came out at 35.6%. In the case of `Br.COc1cc2c(cc1OC)-c1cc3ccc(OC)c(OCc4cccc([N+](=O)[O-])c4)c3c[n+]1CC2`, the “%max” value stood at 33.3%. As to `COc1cc2c(cc1OC)-c1cc3ccc(OC)c(OCc4ccccc4)c3c[n+]1CC2.[Br-]`, the “%max” value is recorded as 36.9%. Still for that read-out and setting: in the case of `COc1cc2c(cc1OC)-c1cc3ccc(OC)c(OCC4CCC4)c3c[n+]1CC2.[Br-]` it was 34.4%. Same read-out and setting: in the case of `COc1cc2c(cc1OC)-c1cc3ccc(OC)c(OCc4ccc(C(F)(F)F)cc4)c3c[n+]1CC2.[Br-]` it was 37.7%; in that of `COc1cc2c(cc1OC)-c1cc3ccc(OC)c(NCc4ccc(C)cc4)c3c[n+]1CC2.[Cl-]`, 33.2%; in that of `COc1cc(COc2c(OC)ccc3cc4[n+](cc23)CCc2cc(OC)c(OC)cc2-4)cc(OC)c1.[Br-]`, 38.4%. The same measure, in the same setting: in the case of `C=CCc1c2[n+](cc3c(OC)c(OC)ccc13)CCc1cc(OC)c(OC)cc1-2.[Br-]` it was 36.5%.

In the case of `COc1cc2c(cc1OC)-c1cc3ccc(OC)c(OCc4cccc(Br)c4)c3c[n+]1CC2.[Br-]`, the “%max” value worked out at 39.3%. Still for that read-out and setting: in the case of `COc1cc2c(cc1OC)-c1cc3ccc(OC)c(OCc4ccc(C)cc4)c3c[n+]1CC2.[Br-]` it was 35.2%; in that of `COc1cc2c(cc1OC)-c1c(Cc3cccc(C)c3)c3ccc(OC)c(OC)c3c[n+]1CC2.[Br-]`, 41.4%. For `COc1cc2c(cc1OC)-c1cc3ccc(OC)c(NCc4ccccc4)c3c[n+]1CC2.[Cl-]`, the “%max” value worked out at 37.3%. Same read-out and setting: the figure for `COc1cc2c(cc1OC)-c1cc3ccc(OC)c(OCC4CC4)c3c[n+]1CC2.[Br-]` is 30.4%. On the same count and under the same terms, in the case of `CCCCC(=O)Nc1c(OC)ccc2cc3[n+](cc12)CCc1cc(OC)c(OC)cc1-3.[Cl-]` it was 37.2%; in that of `COc1cc2c(cc1OC)-c1cc3ccc(OC)c(NCc4ccc(Cl)cc4)c3c[n+]1CC2.[Cl-]`, 31.6%.

Another data set has as its system Platelet. The data set can be described thus: Inhibition of ADP-induced Akt activation in C57BL/6J mouse platelet assessed as reduction of AKT phosphorylation at Ser473 by western blot analysis. The data set is classed as cell-based.
Conditions: not given
(In western blotting, separated proteins are transferred to a membrane and probed.)
For `COc1cc2c(cc1OC)-c1cc3ccc(OC)c(OCc4ccccc4C#N)c3c[n+]1CC2.[Br-]`, the inhibition entry was “Active”. Still for that read-out and setting: in the case of `COc1cc2c(cc1OC)-c1cc3ccc(OC)c(OCC4CC4)c3c[n+]1CC2.[Br-]` it was “Active”; in that of `COc1cc2c(cc1OC)-c1cc3ccc(OC)c(NCc4ccc(Cl)cc4)c3c[n+]1CC2.[Cl-]`, “Active”.
